Experimental data as given in patent publication US6538106B1, “Compositions and methods for treating infections using analogues of indolicidin” (priority 1996, dated 2003).
Structures can show the parent of a compound that is named as a salt. Peptide text beside a SMILES is read from it.

Legend:
[1] = Acute single dose toxicity in isotonic saline (ip, iv, sc); format: in vivo, Swiss CD1 mice; conditions: 5 days
Experimental: The acute, single dose toxicity of various indolicidin analogues is tested in Swiss CD1 mice using various routes of administration. In order to determine the inherent toxicities of the peptide analogues in the absence of any formulation/delivery vehicle effects, the peptides are all administered in isotonic saline with the final pH between 6 and 7.
After administration, the mice are observed for a period of 5 days.

Liposome dye release = format: biochemical
Experimental: In this example, a dye pair consisting of the fluorescent molecule 8-aminonapthalene-1,3,6-trisulfonic acid (ANTS) and its quencher molecule p-xylene-bis-pyridinium bromide (DPX) are used. The mixture of free dye molecules, dye free liposomes, and liposomes containing encapsulated ANTS-DPX are separated by size exclusion chromatography. In the assay, the test peptide is incubated with the ANTS-DPX containing liposomes and the fluorescence due to ANTS release to the outside of the liposome is measured over time.
Using this assay, peptide activity, measured by dye release, is shown to be extremely sensitive to the composition of the liposomes at many liposome to peptide ratios (L/P) (FIG. 7). […] This […] selectivity may mimic that observed […] for bacterial cells in the presence of mammalian cells.
ANTS/DPX can be replaced with fluorescein isothiocyanate-labeled dextran (FD-4), molecular weight 4,400, in the egg PC liposomes.

E.coli strain ML-35 = format: cell-based; conditions: valinomycin pre-incubation
[2] = test system: MSSA (Smith, ATCC # 19640); experiment: MSSA infection, mouse survival; format: in vivo, mice; conditions: formulation D
[3] = test system: S. epidermidis (ATCC # 12228); experiment: S. epidermidis infection, mouse survival; format: in vivo, mice
MRSA (ATCC # 33591) = experiment: MRSA infection, mouse survival; format: in vivo, mice; conditions: for Percentage of Animals Surviving, Treatment: iv, formulation D
A. calcoaceticus = experiment: MIC of APS-modified and parent peptides; format: cell-based; conditions: A. calcoaceticus AC002
E. cloacae = experiment: MIC of APS-modified and parent peptides; format: cell-based; conditions: E. cloacae ECL007
E. coli = experiment: MIC of APS-modified and parent peptides; format: cell-based; conditions: E. coli ECO005
E. faecalis = experiment: MIC of APS-modified and parent peptides; format: cell-based
Experimental: (§1) All biological assays that compare APS-modified peptides with unmodified peptides are performed on an equimolar ratio. The concentration of APS-modified peptides can be determined by spectrophotometric measurement, which is used to normalize concentrations for biological assays.
(§2) APS-modified peptides are at least as potent as the parent peptides in in vitro assays performed as described herein. MIC values against gram positive bacteria are presented for several APS-modified peptides and compared with the values obtained using the parent peptides (Table 22).

S. aureus = experiment: MIC of APS-modified and parent peptides; format: cell-based
Experimental: as §1, §2

K. pneumoniae = experiment: MIC of APS-modified and parent peptides; format: cell-based; conditions: K. pneumoniae KP001
P. aeruginosa = experiment: MIC of APS-modified and parent peptides; format: cell-based; conditions: P. aeruginosa PA004
S. maltophilia = experiment: MIC of APS-modified and parent peptides; format: cell-based; conditions: S. maltophilia SMA002
S. marcescens = experiment: MIC of APS-modified and parent peptides; format: cell-based; conditions: S. marcescens SMS003

CC[C@H](C)[C@H](N)C(=O)N[C@@H](CC(C)C)C(=O)N[C@@H](CCCCN)C(=O)N[C@@H](CCCCN)C(=O)N[C@@H](Cc1c[nH]c2ccccc12)C(=O)N1CCC[C@H]1C(=O)N[C@@H](Cc1c[nH]c2ccccc12)C(=O)N[C@@H](Cc1c[nH]c2ccccc12)C(=O)N1CCC[C@H]1C(=O)N[C@@H](Cc1c[nH]c2ccccc12)C(=O)N[C@@H](CCCNC(=N)N)C(=O)N[C@@H](CCCNC(=N)N)C(=O)N[C@@H](CCCCN)C(N)=O [MBI 11CN HCl, I L K K W P W W P W R R K] (H-ILKKWPWWPWRRK-NH2; N-terminus assumed)
LD90-100 [1]: 8.0 mg/kg

I L K K W P W W P W R R K [MBI 11CN]
Release of FD-4 (fluorescein isothiocyanate-labeled dextran, MW 4,400) (Liposome dye release; egg PC liposomes): No increase in FD-4 fluorescence is detected
Membrane permeabilizing activity (ANTS/DPX dye release) (Liposome dye release; egg PC liposomes with cholesterol added, even at very high lipid to peptide molar ratios): virtually abolishes membrane permeabilizing activity
ONPG hydrolysis diminished, cells pre-incubated with valinomycin vs no pre-incubation (E.coli strain ML-35): approximately 50%
mice rescued from MSSA infection ([2]; 35.7 mg/kg ip, 60 minutes post-infection): 100%
activity at lower dose levels ([2]; dose levels lower than 35.7 mg/kg ip): little or no activity
survival of mice ([3]; iv, formulation D, treatment 15 minutes post-infection): Efficacy is observed at all three dose levels
survival of mice ([3]; iv, formulation D, treatment 30 minutes post-infection): less activity
survival of mice ([3]; iv, formulation D, treatment 60 minutes post-infection): no significant effect
survival of mice ([3]; single iv injection of […] 15 minutes post-infection): best survival rate
survival of mice (MRSA (ATCC # 33591); 1 mg/kg (20 min) protocol: five […] iv injections at −10, −5, 0, +5, +10 mins): delayed the death of the mice to a significant extent
survival of mice (MRSA (ATCC # 33591); 1 mg/kg (2 hr) protocol: five […] iv injections 1 hour apart): no improvement in survivability over the negative control
survival of mice (MRSA (ATCC # 33591); 5 mg/kg protocol: three 5.5 mg/kg iv injections at −5, +55, +115 mins): no improvement in survivability over the negative control
Percentage of Animals Surviving, Treatment (MRSA (ATCC # 33591); 6 hours post-infection): 70%
Percentage of Animals Surviving, Treatment (MRSA (ATCC # 33591); 10 hours post-infection): 30%
Corrected MIC (A. calcoaceticus): 4 µg/mL
Corrected MIC (E. cloacae): >128 µg/mL
Corrected MIC (E. coli): 16 µg/mL
Corrected MIC (E. faecalis; E. faecalis EFS001): 32 µg/mL
Corrected MIC (E. faecalis; E. faecalis EFS004): 8 µg/mL
Corrected MIC (E. faecalis; E. faecalis EFS008): 64 µg/mL
Corrected MIC (S. aureus; S. aureus SA010): 2 µg/mL
Corrected MIC (S. aureus; S. aureus SA011): 8 µg/mL
Corrected MIC (S. aureus; S. aureus SA014): 16 µg/mL
Corrected MIC (S. aureus; S. aureus SA018): 64 µg/mL
Corrected MIC (S. aureus; S. aureus SA025): 4 µg/mL
Corrected MIC (S. aureus; S. aureus SA093): 2 µg/mL
Corrected MIC (K. pneumoniae): 128 µg/mL
Corrected MIC (P. aeruginosa): >128 µg/mL
Corrected MIC (S. maltophilia): 128 µg/mL
Corrected MIC (S. marcescens): >128 µg/mL
